Test results as given in patent publication US8729091B2, “4-phenoxy-nicotinamide or 4-phenoxy-pyrimidine-5-carboxamide compounds” (Hoffmann-La Roche Inc., priority 2010, dated 2014).

Biological target: T1, human GPBAR1 receptor (Homo sapiens, UniProt Q8TDU6)
T1 construct: expressed in transfected cells
T1 sequence (Q8TDU6 1-330): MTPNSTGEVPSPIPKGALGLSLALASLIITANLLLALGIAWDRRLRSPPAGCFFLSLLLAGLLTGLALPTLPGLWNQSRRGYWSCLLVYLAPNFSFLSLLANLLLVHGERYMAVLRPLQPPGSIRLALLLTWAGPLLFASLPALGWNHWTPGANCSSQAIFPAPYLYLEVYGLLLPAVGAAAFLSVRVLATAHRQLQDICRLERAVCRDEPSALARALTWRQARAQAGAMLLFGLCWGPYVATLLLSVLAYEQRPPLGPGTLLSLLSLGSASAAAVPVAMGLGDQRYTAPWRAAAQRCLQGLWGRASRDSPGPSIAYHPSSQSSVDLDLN
Assay: functional cAMP assay in CHO-dhfr(minus) cells expressing human GPBAR1 receptors
Assay type: cell-based
Details: cAMP increase (TR-FRET) in CHO-dhfr(minus) cells expressing human GPBAR1; compounds incubated 30 min at 30° C.
Procedure: The final clone was verified by DNA sequence analysis. The plasmid was transfected into CHO cells deficient in dihydrofolate reductase activity (CHO-dhfr−) using Lipofectamine plus (Invitrogen). Clones were isolated in limited dilution conditions and identified by activities in the cAMP assay using lithocholic acid as agonist.
The growth medium was exchanged with Krebs Ringer Bicarbonate buffer with 1 mM IBMX and incubated at 30° C. for 30 min. Compounds were added to a final assay volume of 100 μl and incubated for 30 min at 30° C. […] The time-resolved energy transfer is measured by a TRF reader (Evotec Technologies GmbH, Hamburg Germany), equipped with a ND:YAG laser as excitation source.
EC50 values were determined using Activity Base analysis (ID Business Solution, Limited). […] Specificity for GPBAR1 was tested in non-transfected CHO cells in the same assay as above.

EC50 | SMILES
300 nM | Cc1cc(Oc2cc(Cl)c(C(=O)O)cc2Cl)c(C(=O)N2CCN(C3CC3)c3ccccc32)cn1 [Example 66, 2,5-Dichloro-4-[5-(4-cyclopropyl-3,4-dihydro-2H-quinoxaline-1-carbonyl)-2-methyl-pyridin-4-yloxy]-benzoic acid]
90 nM | COc1ncccc1N(C)C(=O)c1cncnc1Oc1cc(Cl)ccc1Cl [Example 80, 4-(2,5-Dichloro-phenoxy)-pyrimidine-5-carboxylic acid (2-methoxy-pyridin-3-yl)-methyl-amide]
100 nM | O=C(c1cnccc1Oc1cc(Cl)ccc1Cl)N1CCCc2cc(F)c(F)cc21 [Example 2, [4-(2,5-Dichloro-phenoxy)-pyridin-3-yl]-(6,7-difluoro-3,4-dihydro-2H-quinolin-1-yl)-methanone]
10 nM | O=C(c1cnccc1Oc1cc(Cl)c(O)cc1Cl)N1CCN(C2CC2)c2ccccc21 [Example 57, (4-Cyclopropyl-3,4-dihydro-2H-quinoxalin-1-yl)-[4-(2,5-dichloro-4-hydroxy-phenoxy)-pyridin-3-yl]-methanone]
4 nM | O=C(c1cnccc1Oc1cc(Cl)c(Br)cc1Cl)N1CCN(C2CC2)c2ccccc21 [Example 26, [4-(4-Bromo-2,5-dichloro-phenoxy)-pyridin-3-yl]-(4-cyclopropyl-3,4-dihydro-2H-quinoxalin-1-yl)-methanone]
30 nM | Cc1nc(NC(=O)c2cc(Cl)c(Oc3ccncc3C(=O)N3CCN(C4CC4)c4ccccc43)cc2Cl)sc1C(=O)O [Example 46, 2-{2,5-Dichloro-4-[3-(4-cyclopropyl-3,4-dihydro-2H-quinoxaline-1-carbonyl)-pyridin-4-yloxy]-benzoylamino}-4-methyl-thiazole-5-carboxylic acid]
50 nM | O=C(c1cnccc1Oc1cc(Cl)ccc1Cl)N1CCN(C2CC2)c2cc(Cl)c(F)cc21 [Example 9, (6-Chloro-4-cyclopropyl-7-fluoro-3,4-dihydro-2H-quinoxalin-1-yl)-[4-(2,5-dichloro-phenoxy)-pyridin-3-yl]-methanone]
100 nM | COC(=O)c1ccc(NC(=O)c2cc(Cl)c(Oc3ccncc3C(=O)N3CCN(C4CC4)c4ccccc43)cc2Cl)cc1 [Example 43, 4-{2,5-Dichloro-4-[3-(4-cyclopropyl-3,4-dihydro-2H-quinoxaline-1-carbonyl)-pyridin-4-yloxy]-benzoylamino}-benzoic acid methyl ester]
100 nM | Cn1cc(NC(=O)c2cc(Cl)c(Oc3ccncc3C(=O)N3CCN(C4CC4)c4ccccc43)cc2Cl)cc1C(=O)O [Example 42, 4-{2,5-Dichloro-4-[3-(4-cyclopropyl-3,4-dihydro-2H-quinoxaline-1-carbonyl)-pyridin-4-yloxy]-benzoylamino}-1-methyl-1H-pyrrole-2-carboxylic acid]
100 nM | Cc1cc(Oc2cc(Cl)c(C(=O)Nc3nnn[nH]3)cc2Cl)c(C(=O)N2CCN(C3CC3)c3ccccc32)cn1 [Example 71, 2,5-Dichloro-4-[5-(4-cyclopropyl-3,4-dihydro-2H-quinoxaline-1-carbonyl)-2-methyl-pyridin-4-yloxy]-N-(1H-tetrazol-5-yl)-benzamide]
100 nM | COc1ncccc1N(C)C(=O)c1cnccc1Oc1cc(Cl)ccc1Cl [Example 15, 4-(2,5-Dichloro-phenoxy)-N-(2-methoxy-pyridin-3-yl)-N-methyl-nicotinamide]
100 nM | CN(C(=O)c1cnccc1Oc1cc(Cl)ccc1Cl)c1cccc2c1NCCC2 [Example 24, 4-(2,5-Dichloro-phenoxy)-N-methyl-N-(1,2,3,4-tetrahydro-quinolin-8-yl)-nicotinamide]
22 nM | O=C(c1cnc(Cl)cc1Oc1cc(Cl)ccc1Cl)N1CCCc2ccccc21 [Example 74, [6-Chloro-4-(2,5-dichloro-phenoxy)-pyridin-3-yl]-(3,4-dihydro-2H-quinolin-1-yl)-methanone]
300 nM | O=C(O)CCNC(=O)c1cc(Cl)c(Oc2ccncc2C(=O)N2CCN(C3CC3)c3ccccc32)cc1Cl [Example 34, 3-{2,5-Dichloro-4-[3-(4-cyclopropyl-3,4-dihydro-2H-quinoxaline-1-carbonyl)-pyridin-4-yloxy]-benzoylamino}-propionic acid]
10 nM | O=C(c1cnccc1Oc1cc(Cl)ccc1Cl)N1CCN(C2CC2)c2cc(Cl)ccc21 [Example 11, (6-Chloro-4-cyclopropyl-3,4-dihydro-2H-quinoxalin-1-yl)-[4-(2,5-dichloro-phenoxy)-pyridin-3-yl]-methanone]
100 nM | COc1ccc(F)cc1N(C)C(=O)c1cnccc1Oc1cc(Cl)ccc1Cl [Example 12, 4-(2,5-Dichloro-phenoxy)-N-(5-fluoro-2-methoxy-phenyl)-N-methyl-nicotinamide]
3 nM | O=C(c1cnccc1Oc1cc(Cl)c(CO)cc1Cl)N1CCN(C2CC2)c2ccccc21 [Example 55, (4-Cyclopropyl-3,4-dihydro-2H-quinoxalin-1-yl)-[4-(2,5-dichloro-4-hydroxymethyl-phenoxy)-pyridin-3-yl]-methanone]
10 nM | O=C(c1c[n+]([O-])ccc1Oc1cc(Cl)ccc1Cl)N1CCN(C2CC2)c2ccccc21 [Example 75, (4-Cyclopropyl-3,4-dihydro-2H-quinoxalin-1-yl)-[4-(2,5-dichloro-phenoxy)-1-oxy-pyridin-3-yl]-methanone]
100 nM | COC(=O)c1cc(NC(=O)c2cc(Cl)c(Oc3ccncc3C(=O)N3CCN(C4CC4)c4ccccc43)cc2Cl)cn1C [Example 41, 4-{2,5-Dichloro-4-[3-(4-cyclopropyl-3,4-dihydro-2H-quinoxaline-1-carbonyl)-pyridin-4-yloxy]-benzoylamino}-1-methyl-1H-pyrrole-2-carboxylic acid methyl ester]
600 nM | CCOC(=O)c1sc(NC(=O)c2cc(Cl)c(Oc3ccncc3C(=O)N3CCN(C4CC4)c4ccccc43)cc2Cl)nc1C [Example 45, 2-{2,5-Dichloro-4-[3-(4-cyclopropyl-3,4-dihydro-2H-quinoxaline-1-carbonyl)-pyridin-4-yloxy]-benzoylamino}-4-methyl-thiazole-5-carboxylic acid ethyl ester]
400 nM | O=C(O)CNC(=O)c1cc(Cl)c(Oc2ccncc2C(=O)N2CCN(C3CC3)c3ccccc32)cc1Cl [Example 30, {2,5-Dichloro-4-[3-(4-cyclopropyl-3,4-dihydro-2H-quinoxaline-1-carbonyl)-pyridin-4-yloxy]-benzoylamino}-acetic acid]
200 nM | Cc1ccccc1N(C)C(=O)c1cnccc1Oc1cc(Cl)ccc1Cl [Example 13, 4-(2,5-Dichloro-phenoxy)-N-methyl-N-o-tolyl-nicotinamide]
100 nM | COC(=O)CNC(=O)c1cc(Cl)c(Oc2ccncc2C(=O)N2CCN(C3CC3)c3ccccc32)cc1Cl [Example 29, {2,5-Dichloro-4-[3-(4-cyclopropyl-3,4-dihydro-2H-quinoxaline-1-carbonyl)-pyridin-4-yloxy]-benzoylamino}-acetic acid methyl ester]
1400 nM | CN(C(=O)c1cnccc1Oc1cc(Cl)ccc1Cl)c1cc(C(F)(F)F)cc(C(F)(F)F)c1 [Example 18, N-(3,5-Bis-trifluoromethyl-phenyl)-4-(2,5-dichloro-phenoxy)-N-methyl-nicotinamide]
